These results are taken from patent publication US20240226232A9, “PROTEIN-BASED THERAPIES FOR OCULAR CONDITIONS” (The Regents of the University of Colorado, A Body Corporate, priority 2021, published 2024).

In assay [1] the test system is RGCs. Briefly: Silicone oil mouse model of ocular hypertension, Brn3a-positive RGC count after intravitreal peptide. Format: in vivo, mice. The conditions noted are these: single 1 μg intravitreal dose, day 28. The text has this:
The second ocular hypertension model was generated by anesthetizing mice via intraperitoneal injection of ketamine/xylazine supplemented with topical application of 0.5% proparacaine hydrochloride. A 33G needle was tunneled through the cornea of each tested eye at the superotemporal side close to the limbus to reach the anterior chamber without injuring the lens or iris. […] After the injection, the upper eyelid was gently massaged to close the corneal incision and minimize oil leakage, and veterinary antibiotic ointment was applied to the surface of the injected eye to prevent infection.
After two weeks, the silicone oil droplet was removed. […] Veterinary antibiotic ointment was applied to the surface of the eye after oil removal.
The intraocular pressure of each eye was monitored once weekly until four weeks after silicone oil injection using a tonometer under anesthesia with a sustained flow of isoflurane (5% isoflurane at 2 L/minute mixed with oxygen). Two weeks after oil removal (day 28), retinas were removed and immunostained with Brn3a and βIII-tubulin antibodies to visualize and count the surviving RGCs.

Assay [2] has as its system RGCs. Briefly: Microbead mouse model of ocular hypertension, Brn3a-positive RGC count and βIII-tubulin staining after intravitreal peptide. Type of assay: in vivo, mice. The conditions noted are these: 1 μg intravitreal once weekly for three weeks; for RGCs per mm^2 in retina after six weeks: control almost 3,400, vehicle less than 2,300. The protocol:
The first ocular hypertension model was generated by initially anesthetizing mice via intraperitoneal injection of ketamine/xylazine supplemented with a topical application of 0.5% proparacaine hydrochloride. […] The cornea was gently punctured near the center using a 33G needle, and a small air bubble was injected to lift the anterior chamber of the eye. […] An antibiotic ointment was applied topically on the injected eye to prevent infection.
The intraocular pressure was measured weekly for six weeks using a tonometer. In particular, the mice were placed in an anesthetic chamber filled with a sustained flow of isoflurane (5% isoflurane at 2 L/minute mixed with oxygen). The tonometer took five measurements for each weekly check-in, eliminated the high and low readings, and generated an average intraocular pressure from the remaining readings for each mouse.
After six weeks of microbead injection, the eyes were dissected out and post-fixed with 4% PFA overnight at 4° C. The retinas were subsequently dissected out and washed three times in PBS before blocking (5% normal donkey serum and 1% Triton X-100 in PBS) overnight. Whole-mount retinas were then immunostained for Brn3a and βIII-tubulin (1:500 dilution), which are markers for RGCs and axonal cells, respectively. The retinas were then stained with Alexa Fluor 488 donkey anti-mouse or Texas red-conjugated goat anti-rabbit IgG (1:250 dilution). Four image fields from each retinal region were obtained using a 20× lens with a Zeiss confocal. The Brn3a-positive RGC numbers were counted (cells/mm^2) in the mid-peripheral regions from four quadrants of the whole-mounted retina using the ImageJ software (NIH). Contralateral uninjured eyes were used as a control.

For assay [3], the system named is Human retinal endothelial cells (HRECs). Briefly: Pro-inflammatory cytokine-mediated apoptosis of HRECs, cleaved caspase-3 Western blot. Type of assay: cell-based. The conditions noted are these: 200 μg/mL peptide for three hours, then cytokine mixture (CM) 48 hours, CM only approx. 1:1. The protocol:
The sequence of the first scrambled control peptide was […] (SEQ ID NO: 4), and the sequence of the second scrambled control peptide was […] (SEQ ID NO: 5). All test cells were then treated with a combination of pro-inflammatory cytokines (IFN-γ at 50 U/mL+TNF-α at 20 ng/mL+IL-1β at 20 ng/mL) for 48 hours.
Cell lysates were prepared using 1×RIPA buffer containing a protease inhibitor cocktail. Protein concentrations of the cell lysates were measured using the BCA method, and 25 μg of protein were used for immunoblotting. To measure HREC apoptosis, the cells were immunostained for active (cleaved) caspase-3, specifically, which is a marker for apoptosis. β-actin antibody staining was used as a control for measuring levels of a housekeeping protein and for calculating protein density compared to caspase-3 levels.

Assay [4] deals with retinal capillary cells. Briefly: I/R injury mouse model, acellular retinal capillary count. Format: in vivo, C57BL/6J mice. The conditions noted are these: 0.5 μg intravitreal immediately after I/R injury and again after one week; day 14.
Experimental: This ocular hypertension model was generated by initially anesthetizing 12-week-old C57BL/6J mice via intraperitoneal injection of ketamine/xylazine supplemented with a topical application of 0.5% proparacaine hydrochloride. To perform the I/R injury, the right eye was cannulated into the anterior chamber with a 33-gauge needle connected to an elevated pouch containing 250 ml of 0.9% NaCl solution. […] The PBS-injected eyes were used as vehicle controls. The contralateral eyes were used as additional controls.
After careful removal of the internal limiting membrane (ILM), retinas were placed in 12-well plates with Tris-HCl buffer at a pH of 7.8, and then shaken overnight to loosen the remaining RGCs. The retinas were then transferred to glass microscopy slides and the remaining neuronal tissues carefully dislodged through gentle agitation produced by a 20-μL pipette in Tris-HCl. Periodic acid Schiff (PAS) stain was used to visualize the isolated retinal capillary layer. An inverted fluorescence microscope was used to image the mounted capillaries, and the acellular capillaries from each treatment group were counted and analyzed.
For assay [5], the system named is IL-1β. Briefly: I/R injury mouse model, retinal cytokine mRNA by quantitative real-time PCR. Type of assay: in vivo, mice. As to conditions: two days after I/R injury; 0.5 μg intravitreal. The method, then:
(§1) To measure pro-inflammatory cytokine levels, mice were sacrificed, and retinas were dissected two days after I/R injury. Total RNA was then lysed from the retinas, two micrograms of RNA was reverse-transcribed to synthesize cDNA, and quantitative real-time PCR was performed. The sequences of the PCR primers were as follows: TNF-α forward primer—5′-[…]-3′ and reverse primer—[…]-3′; IL-1β forward primer—5′-5′-[…]-3′ and reverse primer—5′-[…]-3; IFN-γ forward primer—5′-[…]-3′ and reverse primer—5′-[…]-3′. The mRNA levels were analyzed using the comparative Ct method (2-ΔΔCT) and then normalized to β-actin (forward primer—5′-[…]-3′ and reverse primer—5′-[…]-3′).

The test system of assay [6] is TNF-α. Described as above. Format: in vivo, mice. As to conditions: two days after I/R injury; 0.5 μg intravitreal. The protocol:
as §1

For “G^73HFSVLLDVK(acetyl)HFSPEEIAVK^91 [peptain-3a]”, in assay [1], the “RGC death reduced by (compared to PBS-treated control 206)” value came out at 14.2%. Besides, in assay [2], the “axonal degeneration (βIII-tubulin immunostaining)” value was “inhibited axonal degeneration”, the “reduction in RGC death (compared to vehicle control group)” value is recorded as 12% and the “RGCs per mm^2 in retina after six weeks” value was “about 3,000 RGCs per mm^2”.
Regarding FEPSVRFSKVDHLVKENDLVK [Scr-2], in assay [3], the “density ratio of cleaved caspase-3 to β-actin” value (“density ratio” below) is on record as “greater density ratio”.
For SLKEKRNFDVSEVKHVLFVDP [Scr-1], in assay [3], the “density ratio” value is “greater density ratio”.
Take DRFSVNLDVKHFSPEELKVKV [peptain-1]: in assay [1], the “RGC death reduced by (compared to PBS-treated control 206)” value stood at 15.7%. In assay [2], the “axonal degeneration (βIII-tubulin immunostaining)” value is “inhibited axonal degeneration”, the “reduction in RGC death (compared to vehicle control group)” value worked out at 4% and the “RGCs per mm^2 in retina after six weeks” value was “over 3,200 RGCs per mm^2”. In assay [4], the “number of acellular capillaries per retina” value was “lower number of per-retina acellular capillaries”. The “density ratio” value in assay [3] is roughly 0.5. The “reduction of the increase in IL-1β expression compared to the vehicle group” value in assay [5] worked out at 4.6 fold. Moreover, in assay [6], the “reduction of the increase in TNF-α expression compared to the vehicle group” value stood at 6.2 fold.
